The values that follow come from patent EP0719251B1, “BICYCLO (2.2.2) OCTANE DERIVATIVES CHOLECYSTOKININ AND/OR GASTRIN ANTAGONISTS” (JAMES BLACK FOUNDATION LIMITED, priority 1993, dated 1995).

One test has as its target T1, gastrin (Rattus norvegicus, UniProt P30553).
T1 construct: The stomach was excised and flushed with ca. 1 ml of unbuffered physiological saline solution; from tissue; host or cells: isolated whole stomach of immature rats (33-50 g, ca. 21 days old)
T1 sequence (P30553 1-452): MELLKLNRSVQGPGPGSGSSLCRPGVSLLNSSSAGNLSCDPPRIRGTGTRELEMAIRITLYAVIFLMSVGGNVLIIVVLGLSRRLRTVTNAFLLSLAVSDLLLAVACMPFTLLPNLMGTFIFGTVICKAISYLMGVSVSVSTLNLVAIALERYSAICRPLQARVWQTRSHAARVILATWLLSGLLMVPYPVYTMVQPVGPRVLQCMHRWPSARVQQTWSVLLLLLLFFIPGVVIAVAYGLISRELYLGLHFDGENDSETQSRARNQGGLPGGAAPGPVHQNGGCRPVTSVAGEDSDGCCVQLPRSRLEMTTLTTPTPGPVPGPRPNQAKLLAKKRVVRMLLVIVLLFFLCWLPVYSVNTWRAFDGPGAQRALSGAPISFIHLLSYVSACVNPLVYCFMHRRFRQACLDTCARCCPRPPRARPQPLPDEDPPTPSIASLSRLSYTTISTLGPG
In words: gastrin antagonist activity in an immature rat stomach assay. As to conditions: isolated immature rat stomach, cumulative pentagastrin dose-response curves, acid secretion; for Kb: read-out: Gastrin pKB (converted). An outline of the steps:
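Isolated stomachs from immature rats (33-50 g, ca. 21 days) perfused at 1 ml min^-1 with O2-gassed unbuffered saline, perfusate pH monitored by electrode. After 120 min stabilisation, compounds added to serosal bath; cumulative pentagastrin dose-response curves begun 60 min later.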

The target of a further test is T2, CCKA (Cavia porcellus, UniProt Q63931).
T2 construct: The pancreatata were removed from male guinea-pigs (200-300g; Dunkin Hartley); from tissue; host or cells: pancreas membranes of male Dunkin Hartley guinea-pigs
T2 sequence (Q63931 1-430): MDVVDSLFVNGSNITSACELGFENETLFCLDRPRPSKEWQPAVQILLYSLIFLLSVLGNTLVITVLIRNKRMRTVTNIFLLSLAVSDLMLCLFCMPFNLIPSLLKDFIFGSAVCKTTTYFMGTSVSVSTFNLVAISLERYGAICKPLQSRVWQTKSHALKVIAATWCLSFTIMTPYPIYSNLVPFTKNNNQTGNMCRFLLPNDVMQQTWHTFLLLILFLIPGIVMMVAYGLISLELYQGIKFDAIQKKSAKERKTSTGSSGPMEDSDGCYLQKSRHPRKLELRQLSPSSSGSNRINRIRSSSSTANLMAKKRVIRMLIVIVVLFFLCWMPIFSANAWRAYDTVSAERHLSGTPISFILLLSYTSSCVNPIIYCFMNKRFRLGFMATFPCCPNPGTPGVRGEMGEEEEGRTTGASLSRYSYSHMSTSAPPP
In words: CCKA binding assay in guinea-pig pancreas membranes. As to conditions: [125I]-CCK8(S) 200pM; for Ki: containing 0.375 µM PD134,308, read-out: CCKA pKi (converted); for CCKA pKi: containing 0.375 µM PD134,308. In a few lines: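 Competition binding of [125I]-CCK8(S) (200 pM in the added solution) to male guinea-pig pancreas membranes (1 mg/ml wet weight) containing 0.375 µM PD134,308, in HEPES buffer pH 7.2. Incubated 150 min at 21 ± 3°, then filtered. Bound radioactivity gamma-counted; non-specific binding defined with 100nM L-364,718.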

Another test concerns the target T3, CCKB receptor (Mus musculus, UniProt P56481).
T3 construct: The whole brains from male mice (CD1 22-25g; Charles River) were removed; from tissue; host or cells: cerebral cortex membranes of male CD1 mice
T3 sequence (P56481 1-453): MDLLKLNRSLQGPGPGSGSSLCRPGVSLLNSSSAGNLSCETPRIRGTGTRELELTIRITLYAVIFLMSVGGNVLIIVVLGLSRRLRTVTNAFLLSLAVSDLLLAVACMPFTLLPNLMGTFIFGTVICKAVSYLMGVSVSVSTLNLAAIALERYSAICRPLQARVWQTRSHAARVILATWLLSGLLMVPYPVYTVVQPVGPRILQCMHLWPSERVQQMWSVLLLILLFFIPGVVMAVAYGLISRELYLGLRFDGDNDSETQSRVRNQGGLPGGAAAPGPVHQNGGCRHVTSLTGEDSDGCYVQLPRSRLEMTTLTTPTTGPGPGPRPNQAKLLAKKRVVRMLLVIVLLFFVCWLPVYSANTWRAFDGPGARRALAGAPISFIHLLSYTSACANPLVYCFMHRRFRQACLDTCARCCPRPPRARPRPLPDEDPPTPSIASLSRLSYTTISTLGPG
Briefly: radioligand binding assay at the CCKB receptor in mouse cortical membranes. As to conditions: [125I]-CCK8S 200pM, 150 min at 21 ± 3°C, read-out: CCKB pKi (converted). An outline of the steps:
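Radioligand binding was quantified by gamma counting after filtration through GF/B filters and cold 50 mM Tris-HCl (pH 7.4) washes. Tissue source was male CD1 mouse cortex, homogenised and twice centrifuged, then resuspended at 2 mg.ml^-1 original wet weight in pH 7.2 HEPES buffer containing bacitracin.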

With `O=C(O)c1cc(NC(=O)[C@H](Cc2ccccc2)NC(=O)C2C3c4ccccc4C(c4ccccc43)C2C(=O)NCc2ccc(Cl)c(Cl)c2)cc(C(=O)O)c1` (single isomer, unassigned) [Example 34, cis-7-(1S-(3,5-dicarboxyphenylaminocarbonyl) -2-phenylethylaminocarbonyl) -8-(3,4-dichlorophenyl-methylaminocarbonyl) -2,3,5,6-dibenzobicyclo[2.2.2]octane], on gastrin, the Kb was 0.316 µM. For the same compound, the Ki on CCKA is 0.251 µM; at CCKB receptor it was 0.0398 µM.

For the compound `O=C(O)c1cc(NC(=O)[C@H](Cc2ccccc2)NC(=O)C2C3c4ccccc4C(c4ccccc43)C2C(=O)NCc2ccc(Cl)c(Cl)c2)cc(C(=O)O)c1` (single isomer, unassigned) [Example 35, cis-7-(1S-(3,5-dicarboxyphenylaminocarbonyl)-2-phenylethylaminocarbonyl) -8-(3,4-dichlorophenyl-methylaminocarbonyl) -2,3,5,6-dibenzobicyclo[2.2.2]octane], the Kb at gastrin is 1 µM. Further, the Ki on CCKA is 1.26 µM; on CCKB receptor it was 0.158 µM.

In the case of `O=C(O)c1cccc(NC(=O)[C@H](Cc2ccccc2)NC(=O)C2C3c4ccccc4C(c4ccccc43)C2C(=O)NCC23CC4CC(CC(C4)C2)C3)c1` (single isomer, unassigned) [Example 40, cis-7-(1S-(3-carboxyphenylaminocarbonyl)-2-phenylethylaminocarbonyl) -8-(1-adamantanemethylaminocarbonyl)-2,3,5,6-dibenzobicyclo[2.2.2]octane], on gastrin, the Kb is 2 µM. Moreover, the figures for the Ki on CCKA and at CCKB receptor were 1 µM and 0.0158 µM, respectively.

Regarding `O=C(O)c1cccc(NC(=O)[C@H](Cc2ccccc2)NC(=O)C2C3c4ccccc4C(c4ccccc43)C2C(=O)NCC23CC4CC(CC(C4)C2)C3)c1` (single isomer, unassigned) [Example 41, cis-7-(1S-(3-carboxyphenylaminocarbonyl)-2-phenylethylaminocarbonyl)-8-(1-adamantanemethylaminocarbonyl)-2,3,5,6-dibenzobicyclo[2.2.2]octane], the “Gastrin pKB” value at gastrin (60 min) is listed as 5.7. For the same compound, the “CCKA pKi” value on CCKA was 6.0. On CCKB receptor, the Ki was 0.158 µM.

Take `O=C(O)c1cc(CNC(=O)[C@H](Cc2ccccc2)NC(=O)C2C3c4ccccc4C(c4ccccc43)C2C(=O)NCC23CC4CC(CC(C4)C2)C3)cc(C(=O)O)c1` (single isomer, unassigned) [Example 61, cis-7-(1S-(3,5-dicarboxyphenylmethylaminocarbonyl) -2-phenylethylaminocarbonyl) -8-(1-adamantanemethylaminocarbonyl)-2,3,5,6-dibenzobicyclo [2.2.2] octane]: the Kb on gastrin is 0.0398 µM. Also, the Ki is 2.51 µM on CCKA and 0.0316 µM at CCKB receptor.

Consider `O=C(O)c1cc(CNC(=O)[C@H](Cc2ccccc2)NC(=O)C2C3c4ccccc4C(c4ccccc43)C2C(=O)NCC23CC4CC(CC(C4)C2)C3)cc(C(=O)O)c1` (single isomer, unassigned) [Example 62, cis-7-(1S-(3,5-dicarboxyphenylmethylaminocarbonyl)-2-phenylethylaminocarbonyl)-8-(1-adamantanemethyl-aminocarbonyl)-2,3,5,6-dibenzobicyclo[2.2 .2]octane], for which the Kb on gastrin was 0.0631 µM. Also, at CCKA, the “CCKA pKi” value is reported as 5.6. The Ki on CCKB receptor was 0.0398 µM.

On to `O=C(O)c1cc(NC(=O)[C@H](Cc2ccccc2)NC(=O)C2C3c4ccccc4C(c4ccccc43)C2C(=O)NCc2ccc3ccccc3c2)cc(C(=O)O)c1` (single isomer, unassigned) [Example 63, cis-7-(1S-(3,5-dicarboxyphenylaminocarbonyl) -2-phenylethylaminocarbonyl)-8-(2-naphthalenemethylaminocarbonyl) -2,3,5,6-dibenzobicyclo[2.2.2]octane], for which the Kb at gastrin is 0.0398 µM. Also, the Ki is 1.58 µM at CCKA and 0.00251 µM on CCKB receptor.

For the compound `O=C(O)c1cc(NC(=O)[C@H](Cc2ccccc2)NC(=O)C2C3c4ccccc4C(c4ccccc43)C2C(=O)NCc2ccc3ccccc3c2)cc(C(=O)O)c1` (single isomer, unassigned) [Example 64, cis-7-(1S-(3,5-dicarboxyphenylaminocarbonyl) -2-phenylethylaminocarbcnyl)-8-(2-naphthalenemethylaminocarbonyl)-2,3,5,6-dibenzobicyclo [2.2.2]octane], the Kb on gastrin was 0.316 µM. For the same compound, the “CCKA pKi” value on CCKA is recorded as 5.8. The Ki on CCKB receptor is 0.00501 µM.

As for `O=C(O)c1cc(NC(=O)[C@H](CC2CCCCC2)NC(=O)C2C3c4ccccc4C(c4ccccc43)C2C(=O)NCC23CC4CC(CC(C4)C2)C3)cc(C(=O)O)c1` (stereo partly drawn) [Example 5, cis-7-(1S-(3,5-dicarboxyphenylaminocarbonyl) -2-cyclohexylethylaminocarbonyl)-8-(1-adamantanemethylaminocarbonyl) -2,3,5,6-dibenzobicyclo[2.2.2]octane], the Kb on gastrin was 0.316 µM. Moreover, the values for the Ki on CCKA and at CCKB receptor were 1 µM and 0.0251 µM, respectively.

In the case of `O=C(O)c1cc(NC(=O)[C@H](Cc2ccccc2Cl)NC(=O)C2C3c4ccccc4C(c4ccccc43)C2C(=O)NCC23CC4CC(CC(C4)C2)C3)cc(C(=O)O)c1` (stereo partly drawn) [Example 20, cis-7-(1S-(3,5-dicarboxyphenylaminocarbonyl)-2-(2-chlorophenyl) -ethylaminocarbonyl)-8-(1-adamantanemethylaminocarbonyl) -2,3,5,6-dibenzobicyclo [2.2.2] octane], the Kb on gastrin was 0.00631 µM. The Ki on CCKA was 2 µM; on CCKB receptor, 0.01 µM.

Consider `O=C(O)c1cc(NC(=O)[C@H](CCc2ccccc2)NC(=O)C2C3c4ccccc4C(c4ccccc43)C2C(=O)NCC23CC4CC(CC(C4)C2)C3)cc(C(=O)O)c1` (stereo partly drawn) [Example 36, cis-7-(1S-(3,5-dicarboxyphenylaminocarbonyl) -3-phenylpropylaminocarbonyl) -8-(1-adamantanemethyl-aminocarbonyl) -2,3,5,6-dibenzobicyclo[2.2.2]octane], for which the Kb on gastrin was 0.0316 µM. The Ki on CCKA was 2 µM; on CCKB receptor, 0.0631 µM.

In the case of `O=C(O)c1cc(NC(=O)[C@@H](CCc2ccccc2)NC(=O)C2C3c4ccccc4C(c4ccccc43)C2C(=O)NCC23CC4CC(CC(C4)C2)C3)cc(C(=O)O)c1` (stereo partly drawn) [Example 37, cis-7-(1R-(3,5-dicarboxyphenylaminocarbonyl) -3-phenylpropylaminocarbonyl)-8-(1-adamintanemethylaminocarbonyl)-2,3,5,6-dibenzobicyclo[2.2.2] octane], the Kb at gastrin is 0.0631 µM. Further, the Ki was 2 µM at CCKA and 0.1 µM at CCKB receptor.
